Source: PubChem BioAssay (NCI)
“And” between values parts separate entries of the source, which are not always exact repeats. Equal entries are not always repeated.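 Dose response: 5 concentrations. Exposure: 48 h. Format: 96-well plates. Endpoint: linear interpolation; highest concentration if not reached. GI50 is the concentration that inhibits growth by half. TGI: concentration producing complete growth inhibition.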

Key:
Experiment in all cases: growth of human tumour cells (NCI), 48 h
NCI-H460 lung = system: NCI-H460 lung
OVCAR-3 ovarian = system: OVCAR-3 ovarian
CAKI-1 renal = system: CAKI-1 renal
T-47D breast = system: T-47D breast
HS 578T breast = system: HS 578T breast
OVCAR-8 ovarian = system: OVCAR-8 ovarian
SW-620 colon = system: SW-620 colon
ACHN renal = system: ACHN renal
OVCAR-4 ovarian = system: OVCAR-4 ovarian
TK-10 renal = system: TK-10 renal

| Structure (SMILES) | GI50 (NCI-H460 lung) | TGI (NCI-H460 lung) | GI50 (OVCAR-3 ovarian) [µM] | TGI (OVCAR-3 ovarian) | GI50 (CAKI-1 renal) | TGI (CAKI-1 renal) | TGI (T-47D breast) [µM] | TGI (HS 578T breast) | GI50 (OVCAR-8 ovarian) | TGI (OVCAR-8 ovarian) | GI50 (SW-620 colon) | TGI (SW-620 colon) | GI50 (ACHN renal) | TGI (ACHN renal) | GI50 (OVCAR-4 ovarian) [µM] | TGI (OVCAR-4 ovarian) | GI50 (TK-10 renal) | TGI (TK-10 renal) | GI50 (T-47D breast) [µM] | GI50 (HS 578T breast) [µM] |
| --- | --- | --- | --- | --- | --- | --- | --- | --- | --- | --- | --- | --- | --- | --- | --- | --- | --- | --- | --- | --- |
| O=NN(CCCl)C(=O)NC1CCCCC1 | 24.1 µM and 67.7 µM | 69.2 µM and 124 µM and 187 µM | 13.5 | 34.5 µM and 142 µM | 22.9 µM and 30.5 µM and 60.5 µM | 41.7 µM and 101 µM and 142 µM | 166 | 104 µM | 19.2 µM and 70.8 µM | 42 µM and 208 µM and 215 µM | 18.3 µM and 44.1 µM | 45.9 µM and 108 µM and 98.7 µM | 23.2 µM and 82.7 µM | 57.6 µM and 153 µM and 182 µM | 20 | 90.8 µM and 155 µM and 87.1 µM | 28 µM and 87.4 µM | 86.8 µM and 152 µM and 177 µM |  |  |
| N/C(=N\C(N)=N\c1nc2ccccc2s1)c1cnccn1 | 3.59 µM | > 100 µM | 2.79 | 7.86 µM | 2.14 µM | 5.06 µM | 6.22 | > 100 µM | 3.11 µM | 26.5 µM | 3.68 µM | > 100 µM | 2.51 µM | 6.6 µM | 3.38 | > 100 µM | 2.53 µM | 7.96 µM | 2.24 | 4.7 |
| COc1ccc(OCC(O)CN2CCN(c3ccc(Cl)cc3)CC2)cc1 (stereo unspecified) | > 100 µM | > 100 µM | > 100 | > 100 µM | 8.86 µM | > 100 µM | > 100 | > 100 µM | 88.5 µM | > 100 µM | > 100 µM | > 100 µM | 65.9 µM | > 100 µM | > 100 | > 100 µM |  |  | > 100 | > 100 |
| CC1OC(OC2C(O[C@H]3CC[C@@]4(C)C(=CC[C@H]5[C@@H]6C[C@@H]7O[C@]8(CC[C@@H](C)CO8)[C@@H](C)[C@@H]7[C@@]6(C)CC[C@@H]54)C3)OC(CO)C(OC3OC(CO)C(O)C3O)C2O)C(O)C(O)C1O (stereo partly specified) |  | 1.53 µM | 1.49 | 1.79 µM and 2.82 µM | 0.602 µM | 1.76 µM and 1.86 µM | 2.68 | 1.78 µM and 2.24 µM | 0.423 µM | 1.16 µM and 1.5 µM | 0.195 µM | 2.57 µM and 0.419 µM |  | 1.58 µM and 2.12 µM | 1.08 | 2.2 µM and 2.26 µM |  | 2.85 µM and 2.24 µM | 1.39 |  |
| COc1ccc(/C=C\c2cc(OC)c(OC)c(OC)c2)c(NS(=O)(=O)c2ccc(C(C)(C)C)cc2)c1O | 0.375 µM | 11 µM | 0.225 | 12 µM | 0.0674 µM | 18.7 µM | 52.3 | 19.9 µM | 0.44 µM | > 100 µM | 0.329 µM | 23.5 µM | 0.452 µM | 23.5 µM | 0.188 | 32 µM | 1.3 µM | 37.1 µM | 16.8 | 0.521 |
| O=C(Nc1ccc(C(F)(F)F)cc1[N+](=O)[O-])c1cccnc1 |  | 36.8 µM |  | 7.29 µM |  | 8.11 µM | > 100 | > 100 µM |  |  |  | > 100 µM |  | > 100 µM |  | > 100 µM |  | > 100 µM |  |  |
| CC1=C(CNO)C2=C(C)C3(CC3)[C@@](C)(O)C(=O)C2=C1 | 0.358 µM | 3.87 µM | 1.49 | 6.26 µM | 1.66 µM | 7.07 µM | 8.47 | 9.18 µM | 2.28 µM | 36 µM | 4.54 µM | > 100 µM | 2.25 µM | 7.6 µM | 2.1 | 7.06 µM | 3.24 µM | 8.4 µM | 1.21 | 2.7 |
